IC50 data for one molecule are collected here from patent US5185452A, “Benzheterocyclyl sulphones” (Imperial Chemical Industries PLC, priority 1989, dated 1993).

The experiment concerns the target T1, aldose reductase (Bos taurus, UniProt P16116).
T1 construct: partially purified aldose reductase is isolated in known manner from bovine lenses; from tissue; host or cells: bovine lenses
Briefly: in vitro inhibition of partially purified aldose reductase isolated from bovine lenses (reduction of glucose to sorbitol, spectrophotometric). The class given is biochemical. To be noted: in vitro test. The source says:
Thus, in a standard procedure partially purified aldose reductase is isolated in known manner from bovine lenses. The percentage inhibition of this enzyme's ability in vitro to catalyse the reduction of aldoses to polyhydric alcohols, and particularly to reduce glucose to sorbitol, caused by a test compound can then be determined using standard spectrophotometric methods.

A word on the IC50: it is the concentration needed to halve the response being measured. A higher IC50 goes with a need for much substance. For `Cc1c(C)c(S(=O)(=O)C[N+](=O)[O-])c(C)c2c1OC(C)(C)CC2` [Example 2, 2,2,5,7,8-pentamethyl-6-(nitromethylsulphonyl)-chroman], the IC50 is 0.013 µM. This counts as double-digit nanomolar.
